Type in all cases: cell-based
The target in assay [1] is T1, hBGT1 (Homo sapiens, UniProt P48065).
T1 sequence (P48065 1-614): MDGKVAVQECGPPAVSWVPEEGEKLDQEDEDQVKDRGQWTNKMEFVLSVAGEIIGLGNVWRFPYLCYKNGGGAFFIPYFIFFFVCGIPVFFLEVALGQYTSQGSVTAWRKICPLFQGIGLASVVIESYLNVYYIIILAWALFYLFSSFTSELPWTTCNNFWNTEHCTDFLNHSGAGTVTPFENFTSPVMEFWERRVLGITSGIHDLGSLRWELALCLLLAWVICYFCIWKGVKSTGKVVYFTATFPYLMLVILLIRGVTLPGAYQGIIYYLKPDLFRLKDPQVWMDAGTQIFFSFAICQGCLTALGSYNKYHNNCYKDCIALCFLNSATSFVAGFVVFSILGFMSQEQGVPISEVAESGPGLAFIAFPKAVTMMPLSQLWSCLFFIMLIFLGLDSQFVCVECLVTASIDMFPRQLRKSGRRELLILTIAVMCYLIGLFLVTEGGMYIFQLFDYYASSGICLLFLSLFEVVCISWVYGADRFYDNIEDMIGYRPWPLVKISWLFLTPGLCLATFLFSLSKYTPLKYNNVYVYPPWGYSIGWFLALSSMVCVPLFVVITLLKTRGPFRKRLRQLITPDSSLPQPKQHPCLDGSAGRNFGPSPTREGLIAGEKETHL
Briefly: hBGT1 direct uptake assay (LC-MS-MS). Details: expressed in transfected cells; host or cells: HEK-TREx cells (HEK-TREx-BGT1 inducible line), induced with tetracycline/doxycycline and butyrate. As to conditions: HEK-TREx-hBGT1 cells induced to express hBGT1. The method, then: Four concentrations (bracketing the affinity as measured by competition assays) per compound were routinely tested. Non-specific uptake was determined by measuring the uptake into cells not induced to express the transporter (“no tet”).
Typically, four concentrations bracketing the IC50 were tested. […] The samples were robustly vortexed and centrifuged for 10 minutes at 13,200 rpm to spin down any precipitate. […] Three additional 2-fold dilutions were made in the subsequent rows (B-D or […]) in HBSS.
An internal standard of 50 μM propranolol in 50:50 ethanol:water was also prepared.
The cells were washed twice in room temperature HBSS (100 μl/well/wash) using a 96-well plate washer (Bio Tek ELX405). Alternatively, cells were washed manually with equivalent volumes using a multichannel pipettor. Immediately before the assay was begun, the final 100 μl wash solution was removed from the cells.
After the final wash, as much of the wash buffer as possible was removed by aspirating the wells with a probe that reached the bottom of the wells. (Residual salts from the wash buffer can adversely affect the LC-MS-MS by disrupting the LC method or by suppressing the MS signal.) 150 μl of a 50:50 ethanol:water solution was added to each well to lyse the cells and extract the test compound. The plate was covered and allowed to sit for 20 minutes at room temperature to ensure cell lysis. […]

Assay [2] has as its target T1, hBGT1. Description: hBGT1 competition uptake assay (inhibition of 3H-GABA uptake). Details: expressed in transfected cells; host or cells: HEK-TREx cells (HEK-TREx-BGT1 inducible line), induced with tetracycline/doxycycline and butyrate. As to conditions: HEK-TREx-BGT1 cells induced to express BGT1; FIG. 2. The method, then: Alternatively, cells were washed manually with equivalent volumes using a multichannel pipettor.
Non-specific uptake was determined by measuring the uptake into cells not induced to express the transporter (“no tet”).

For assay [3], the target named is T1, hBGT1. Briefly: Oocyte uptake assay with BGT1 cRNA-injected Xenopus oocytes. Further details: expressed in transfected cells; host or cells: Xenopus oocytes injected with in vitro transcribed BGT1 cRNA. Conditions: oocytes expressing BGT1 protein.
Protocol: For expression in Xenopus oocytes, in vitro BGT1 cRNA is prepared and injected into defoliculated oocytes.
To measure directly the uptake of possible substrates, an oocyte uptake assay is performed in which uptake of compounds is measured by mass spectroscopy. […] Oocytes injected with BGT1 cRNA are incubated at 16-18° C. until maximal transporter expression is reached. Oocytes from the same batch, not injected with cRNA, can be used as a control. […] Subpools are homogenized in 150 μl of ice cold 80% MeOH/H2O and lysed manually.

Consider `NCCCC(=O)O` [GABA, γ-aminobutyric acid], for which the “Direct Uptake Vmax” value in assay [1] amounted to 110 pmol/min/well. In addition, the “Effect of unlabeled competitor on uptake of labeled GABA” value in assay [2] is on record as “the uptake of labeled GABA decreased as the concentration of unlabeled GABA increased”.
For the compound `NCCCC(=O)O` [^3H-GABA], the “3H-GABA uptake versus noninjected controls” value in assay [3] was “higher levels of ^3H-GABA uptake than noninjected controls”.

Source of the values: US7704695B2, “Screening of compounds for BGT1 transporter activity” (XenoPort, Inc., priority 2005, dated 2010).
